Among the test systems are ACHN renal; HOP-92 NSCLC; MALME-3M melanoma; PC-3 prostate; T-47D breast; HT29 colon; OVCAR-5 ovarian; KM12 colon; A549 NSCLC; K-562 leukemia.
Holding throughout (assay): inhibition of tumour cell growth, NCI panel, 48 h

We go through 5 compounds from PubChem BioAssay (NCI).

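How tested: cells in 96-well plates exposed to compound for 48 hours at five concentrations. GI50: concentration for 50% inhibition of growth. At the TGI there is no net growth.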

On to `N=C1C(c2nc3ccccc3s2)=C(O)CN1c1cc(Cl)cc(Cl)c1`, for which the GI50 with ACHN renal is more than 100 µM; in the assay on HOP-92 NSCLC, 59.3 µM; in the assay with MALME-3M melanoma it was 29.4 µM; in the assay on PC-3 prostate, more than 100 µM; in the assay with T-47D breast, more than 100 µM; in the assay with HT29 colon it was more than 100 µM. The GI50 in the assay on OVCAR-5 ovarian, in the assay on KM12 colon, in the assay with A549 NSCLC and in the assay on K-562 leukemia was more than 100 µM each time. In addition, the TGI in the assay on ACHN renal, in the assay on HOP-92 NSCLC, with MALME-3M melanoma, in the assay with PC-3 prostate, with T-47D breast and in the assay with HT29 colon was more than 100 µM each time. Moreover, the TGI with OVCAR-5 ovarian, in the assay on KM12 colon, with A549 NSCLC and in the assay with K-562 leukemia was more than 100 µM in each case.
Turning to `CCN1C(=O)N(CC)C2C1NN=c1s/c(=C\c3ccc(OC)cc3)c(=O)n12` (stereo not given), the GI50 in the assay on ACHN renal was 0.165 µM; with HOP-92 NSCLC, 3.25 µM; in the assay on MALME-3M melanoma it was 0.304 µM; in the assay on PC-3 prostate it was 0.14 µM; with T-47D breast, 0.163 µM; with HT29 colon, 0.238 µM. Further, the GI50 was 0.474 µM in the assay on OVCAR-5 ovarian, 0.0716 µM in the assay with KM12 colon, 0.247 µM in the assay with A549 NSCLC and 0.053 µM with K-562 leukemia. Besides, the TGI with ACHN renal was more than 100 µM; in the assay with HOP-92 NSCLC, more than 100 µM; in the assay with MALME-3M melanoma it was more than 100 µM; in the assay with PC-3 prostate it was more than 100 µM; in the assay on T-47D breast it was more than 100 µM; in the assay with HT29 colon, more than 82.4 µM. The TGI in the assay with OVCAR-5 ovarian, in the assay on KM12 colon, in the assay on A549 NSCLC and with K-562 leukemia was more than 100 µM throughout.
With `COc1cc2c(cc1O)C1CC(CC3CCCCN31)OC(=O)/C=C\c1ccc(O)c-2c1` (stereo not given), the TGI in the assay with ACHN renal is more than 100 µM; in the assay with HOP-92 NSCLC it was 97.9 µM; with MALME-3M melanoma, 40.2 µM; in the assay with PC-3 prostate, 99.5 µM; with T-47D breast, 45.7 µM; in the assay with HT29 colon, 50.4 µM. Also, the TGI with OVCAR-5 ovarian is more than 100 µM; in the assay with KM12 colon, 34.8 µM; in the assay with A549 NSCLC it was more than 100 µM; with K-562 leukemia, more than 100 µM.
On to `CNCCN(C)Cc1cn[nH]c1-c1ccc(OC2CC(OCCC3CCOCC3)C2)cc1` (stereo not given), for which the GI50 is 64.6 µM in the assay on ACHN renal; 1.43 µM in the assay with HOP-92 NSCLC; 28.4 µM in the assay on MALME-3M melanoma; more than 63.4 µM with PC-3 prostate; 27.8 µM with T-47D breast; 38.6 µM with HT29 colon. Also, the GI50 is more than 100 µM in the assay with OVCAR-5 ovarian, more than 83.9 µM in the assay on KM12 colon, more than 100 µM with A549 NSCLC and 33.3 µM with K-562 leukemia. Further, the TGI in the assay with ACHN renal is more than 100 µM; in the assay with HOP-92 NSCLC it was more than 50.8 µM; in the assay with MALME-3M melanoma, more than 100 µM; with PC-3 prostate, more than 100 µM; with T-47D breast, more than 100 µM; in the assay on HT29 colon it was more than 100 µM. Besides, the TGI in the assay on OVCAR-5 ovarian, with KM12 colon, in the assay on A549 NSCLC and with K-562 leukemia was more than 100 µM throughout.
Regarding `CCOC(=O)c1cc(-c2ccccc2)[nH]c1N/N=C/c1c(Cl)cccc1Cl`, the GI50 in the assay with ACHN renal is 0.874 µM; in the assay with HOP-92 NSCLC, 2.02 µM; with MALME-3M melanoma it was 3.9 µM; in the assay on PC-3 prostate, 0.502 µM; with T-47D breast it was more than 21.2 µM; in the assay on HT29 colon, 0.836 µM. Moreover, the GI50 is 4.99 µM in the assay with OVCAR-5 ovarian, 0.584 µM in the assay with KM12 colon, 1.92 µM with A549 NSCLC and 0.491 µM with K-562 leukemia. For the same compound, the TGI was more than 100 µM in the assay on ACHN renal; 62.4 µM in the assay on HOP-92 NSCLC; more than 100 µM in the assay on MALME-3M melanoma; 37.5 µM in the assay on PC-3 prostate; more than 100 µM with T-47D breast; 16.3 µM with HT29 colon. The TGI was 98 µM in the assay on OVCAR-5 ovarian, 24.3 µM in the assay on KM12 colon, more than 100 µM in the assay with A549 NSCLC and 13.7 µM in the assay with K-562 leukemia.
